The nature of test [1]: Inhibition of platelet aggregation in heparin treated human platelet rich plasma (PRP).
Test [2] is described as follows: Inhibition of platelet aggregation in citreated human platelet rich plasma (PRP).

SMILES strings stand for the structures.

Our source for the IC50 values is BindingDB's records for doi:10.1016/s0960-894x(98)00709-4 (Dupont Pharmaceuticals, 1999).

Broadly, the IC50 is the midpoint of a concentration-inhibition curve. Lower therefore signals greater potency in that assay.

Compound `N=C(N)c1ccc(C2=NOC(CC(=O)NCCC(=O)O)C2)cc1` (centres undefined) displayed an IC50 in test [1] of 560 nM.
Still for that read-out and setting: next, `[H]/N=C(/N)c1ccc(C2=NO[C@@H](CC(=O)NC[C@H](NC(=O)OCCCC)C(=O)O)C2)cc1`: 66 nM.
Turning to `C=CCOP(=O)(NC(CNC(=O)CC1CC(c2ccc(C(=N)N)cc2)=NO1)C(=O)O)OCC=C` (centres undefined) [2-(Bis-allyloxy-phosphorylamino)-3-{2-[3-(4-carbamimidoyl-phenyl)-4,5-dihydro-isoxazol-5-yl]-acetylamino}-propionic acid], the half-maximal inhibitory concentration (IC50) in test [2] was 122 nM; in test [1], 224 nM.
On to `CCCCOP(=O)(NC(CNC(=O)CC1CC(c2ccc(C(=N)N)cc2)=NO1)C(=O)O)OCCCC` (centres undefined) [3-{2-[3-(4-Carbamimidoyl-phenyl)-4,5-dihydro-isoxazol-5-yl]-acetylamino}-2-(dibutoxy-phosphorylamino)-propionic acid], for which the values for the half-maximal inhibitory concentration (IC50) in test [2] and in test [1] were 114 nM and 221 nM, respectively.
For `CCOP(=O)(NC(CNC(=O)CC1CC(c2ccc(C(=N)N)cc2)=NO1)C(=O)O)OCC` (centres undefined) [3-{2-[3-(4-Carbamimidoyl-phenyl)-4,5-dihydro-isoxazol-5-yl]-acetylamino}-2-(diethoxy-phosphorylamino)-propionic acid] the same measures were 117 nM and 240 nM.
For `CC(C)OP(=O)(NC(CNC(=O)CC1CC(c2ccc(C(=N)N)cc2)=NO1)C(=O)O)OC(C)C` (centres undefined) [3-{2-[3-(4-Carbamimidoyl-phenyl)-4,5-dihydro-isoxazol-5-yl]-acetylamino}-2-(diisopropoxy-phosphorylamino)-propionic acid] the same measures were 103 nM and 210 nM.
For `COP(=O)(NC(CNC(=O)CC1CC(c2ccc(C(=N)N)cc2)=NO1)C(=O)O)OC` (centres undefined) [3-{2-[3-(4-Carbamimidoyl-phenyl)-4,5-dihydro-isoxazol-5-yl]-acetylamino}-2-(dimethoxy-phosphorylamino)-propionic acid] the same measures were 105 nM and 197 nM.
With `N=C(N)c1ccc(C2=NOC(CC(=O)NCC(NP(=O)(O)O)C(=O)O)C2)cc1` (centres undefined) [3-{2-[3-(4-Carbamimidoyl-phenyl)-4,5-dihydro-isoxazol-5-yl]-acetylamino}-2-phosphonoamino-propionic acid], the half-maximal inhibitory concentration (IC50) in test [2] is 260 nM; in test [1] it was 376 nM.
